According to US11975055B2 (priority 2018, dated 2024):

System: rat model of MRMT-1 induced bone cancer pain
Conditions: in vivo

## CN1CC[C@]23c4c5ccc(O)c4O[C@H]2[C@@H](O)C=C[C@H]3[C@H]1C5 [Morphine]
  paw withdrawal threshold (allodynia induced by bone cancer): reversal of deficit in paw withdrawal threshold
